Test results reported in paper PMC6648700 (Molecular pharmaceutics, 2018).

Legend:
[1] = tested on: Nocardia asteroides (clinical isolate); assay: Cell viability IC50 screen; conditions: read-out: IC50 without a β-lactam, Nast
[2] = tested on: Mycobacterium abscessus PM3386 Δbla; assay type: cell-based; conditions: GSK690693 50 μM
[3] = tested on: Mycobacterium tuberculosis H37Rv ΔRD1 ΔpanCD strain mc^26030; assay type: cell-based; conditions: for activity against Mtb alone: auxotrophic Mtb H37Rv; for activity against Mtb with sub-MIC50 dose of meropenem: meropenem 1μg/mL with clavulonic acid
[4] = tested on: M. marinum; assay: Growth inhibition and β-lactam potentiation, M. marinum; assay type: cell-based, Mycobacterium marinum
[5] = in vivo; cited from earlier work
[6] = tested on: Mycobacterium chelonae (clinical isolate); assay: MIC shift, M. chelonae
[7] = tested on: Mycobacterium smegmatis MC^2155 WT; assay: Cell viability IC50 screen; conditions: for potentiation of IPA by isoniazid, Msmeg: isoniazid at four times less than the lethal concentration; for potentiation with a sub-MIC50 dose of meropenem to inhibit Msmeg growth: meropenem 1.25μg/mL
[8] = molecular target: PknB 1–331 (Mycobacterium tuberculosis, UniProt P9WI81); assay type: biochemical; conditions: at concentrations tested
Sequence of PknB 1–331 (P9WI81 1-331): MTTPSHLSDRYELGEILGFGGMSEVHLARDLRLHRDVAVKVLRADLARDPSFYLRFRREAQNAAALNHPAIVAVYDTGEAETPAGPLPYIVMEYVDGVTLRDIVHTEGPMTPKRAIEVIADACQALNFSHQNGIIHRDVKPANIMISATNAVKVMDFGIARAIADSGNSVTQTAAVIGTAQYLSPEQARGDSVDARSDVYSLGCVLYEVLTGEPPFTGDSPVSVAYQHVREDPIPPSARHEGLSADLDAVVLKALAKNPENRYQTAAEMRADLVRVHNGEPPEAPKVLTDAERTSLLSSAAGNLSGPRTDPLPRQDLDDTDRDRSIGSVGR

Row | SMILES | IC50 [1] | activity against Mtb alone [3] | activity against Mtb with sub-MIC50 dose of meropenem [3] | potentiation of IPA by isoniazid, Msmeg [7] | potentiation with a sub-MIC50 dose of meropenem to inhibit Msmeg growth [7] | other results
1 | CCn1c(-c2nonc2N)nc2c(C#CC(C)(C)O)ncc(OCC3CCNCC3)c21 [GSK554170A] | 24 to 100 µM | – | – | – | – | –
2 | CCn1c(-c2nonc2N)nc2c(C#CC(C)(C)O)ncc(OC[C@H]3CCCNC3)c21 [GSK690693, 4-(2-(4-amino-1,2,5-oxadiazol-3-yl)-1-ethyl-7-{[(3S)-3-piperidinylmethyl]oxy}−1H-imidazo[4,5-c]pyridin-4-yl)-2-methyl-3-butyn-2-ol] | 24 to 100 µM | not active | not active | did not potentiate | able to potentiate | potentiation of kanamycin, Mab [2]: no effect; potentiation of β-lactams, M. marinum ([4]; Fig. S7C): does not potentiate; activity alone, M. marinum growth ([4]; Fig. S7D): effective on its own; side-effects in phase I clinical trials [5]: only moderate side-effects; potentiation of meropenem, Mche ([6]; with 8 μg/mL clavulanate): two-fold; potentiation of meropenem, Mche ([6]; without clavulanate): did not see any potentiation
3 | CCn1c(-c2nonc2N)nc2c(C#CC(C)(C)O)nc(OC[C@H](N)c3ccccc3)cc21 [GSK943949A] | 24 to 100 µM | – | – | – | – | –
4 | CCn1c(-c2nonc2N)nc2c(C#CC(C)(C)O)nc(O[C@@H](CN)c3ccccc3)cc21 [GSK1007102B] | 24 to 100 µM | able to attenuate the growth | activity was shifted | did not potentiate | the most potent | –
5 | CCn1c(-c2nonc2N)nc2cncc(CNC3CCNCC3)c21 [SB-747651A] | – | – | – | – | – | PknB inhibitory activity [8]: no inhibitory activity
